In the NIST ThermoML archive (doi:10.1021/je010272x):
Numbers after ± are expanded uncertainties.

Experiments:
[1] = Liquid
[2] = Boiling temperature at pressure P; conditions: Liquid, ebulliometry

Compound	vapor or sublimation pressure ([1]; 357.85 K) [kPa]	vapor or sublimation pressure ([1]; 364.85 K) [kPa]	vapor or sublimation pressure ([1]; 370.45 K) [kPa]	vapor or sublimation pressure ([1]; 372.95 K) [kPa]	vapor or sublimation pressure ([1]; 375.15 K) [kPa]	vapor or sublimation pressure ([1]; 379.05 K) [kPa]	vapor or sublimation pressure ([1]; 382.75 K) [kPa]	vapor or sublimation pressure ([1]; 385.65 K) [kPa]	vapor or sublimation pressure ([1]; 388.95 K) [kPa]	vapor or sublimation pressure ([1]; 390.35 K) [kPa]	vapor or sublimation pressure ([1]; 391.65 K) [kPa]	vapor or sublimation pressure ([1]; 394.15 K) [kPa]	vapor or sublimation pressure ([1]; 396.65 K) [kPa]	vapor or sublimation pressure ([1]; 398.85 K) [kPa]	vapor or sublimation pressure ([1]; 401.05 K) [kPa]	vapor or sublimation pressure ([1]; 402.45 K) [kPa]	Boiling temperature at pressure P ([2]; 33.3 kPa) [°C]	Boiling temperature at pressure P ([2]; 66.6 kPa) [°C]	Boiling temperature at pressure P ([2]; 101.3 kPa) [°C]
CCC(C)CO (centres undefined) [2-methyl-1-butanol]	16.7 ± 0.3	23.3 ± 0.3	30 ± 0.4	33.3 ± 0.4	36.7 ± 0.4	43.3 ± 0.4	50 ± 0.4	56.6 ± 0.5	63.3 ± 0.5	66.6 ± 0.5	70 ± 0.5	76.6 ± 0.5	83.3 ± 0.6	90 ± 0.6	96.6 ± 0.6	101.3 ± 0.6	–	–	–
CCO [ethanol]	–	–	–	–	–	–	–	–	–	–	–	–	–	–	–	–	52.60 ± 0.2	68.00 ± 0.2	78.30 ± 0.2
